SMILES strings stand for the structures.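 Interpolation was linear, between the two tested concentrations surrounding the appropriate level; five concentrations were tested over 48 hours in 96-well plates. At the TGI there is no net growth.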 Where a SMILES comes first, the peptide text is derived from it. The star is where a group is joined. Boc = CC(C)(C)OC(=O)*

Among the test systems are DMS 114 small cell lung; DMS 273 small cell lung; KM20L2 colon; LXFL 529 NSCLC; M14 melanoma; M19-MEL melanoma; NCI-H460 lung; OVCAR-8 ovarian; SNB-75 CNS; SNB-78 CNS; SR leukemia; XF 498 CNS; DLD-1 colon; HOP-18 NSCLC; UACC-257 melanoma.
Holding throughout (assay): NCI tumour cell line growth inhibition, 48 h

In the case of `O=C1CCN(CCC(F)(F)C(F)(F)C(F)(F)C(F)(F)F)C(=S)N1`, the TGI with DMS 114 small cell lung, in the experiment with DMS 273 small cell lung, in the experiment with KM20L2 colon, with LXFL 529 NSCLC, in the experiment on M14 melanoma and with M19-MEL melanoma was greater than 100 µM each time. Moreover, the TGI in the experiment with NCI-H460 lung, with OVCAR-8 ovarian, with SNB-75 CNS, in the experiment on SNB-78 CNS, with SR leukemia and with XF 498 CNS was greater than 100 µM each time.
Take `CC1=N/C(=C\c2ccc(N)cc2)C(=O)N1Nc1nnc(NN2C(=O)/C(=C/c3ccc(N)cc3)N=C2C)c2ccccc12`: the TGI in the experiment on DLD-1 colon, with DMS 273 small cell lung, in the experiment with HOP-18 NSCLC, with KM20L2 colon, in the experiment on LXFL 529 NSCLC and in the experiment with M14 melanoma was greater than 100 µM each time. The TGI with M19-MEL melanoma, in the experiment on NCI-H460 lung, in the experiment with OVCAR-8 ovarian, in the experiment on SNB-75 CNS, with SR leukemia and in the experiment on UACC-257 melanoma was greater than 100 µM throughout.
With `NC(=S)N/N=C/c1cn(CCCl)c2ccccc12`, the TGI in the experiment with DLD-1 colon, in the experiment with DMS 114 small cell lung, with HOP-18 NSCLC, in the experiment with LXFL 529 NSCLC, with M14 melanoma and in the experiment with M19-MEL melanoma was greater than 100 µM each time. In addition, the TGI in the experiment on OVCAR-8 ovarian was greater than 100 µM; in the experiment on SNB-75 CNS, 86 µM; in the experiment on SNB-78 CNS it was greater than 100 µM; in the experiment with SR leukemia, greater than 100 µM; in the experiment on UACC-257 melanoma, greater than 100 µM.
`CN(NC(=O)c1ccc(Cl)cc1)C1=NCCCCN1`: the TGI with M14 melanoma, in the experiment on NCI-H460 lung, in the experiment on OVCAR-8 ovarian, with SNB-75 CNS, with SR leukemia and with UACC-257 melanoma was greater than 100 µM throughout.
As to `CC1(C)CCCCC1/C=C/C(CC(O)(C(F)(F)F)C(F)(F)F)=N\Nc1ccc([N+](=O)[O-])cc1[N+](=O)[O-]` (stereo not drawn), the TGI in the experiment with M14 melanoma is 17.2 µM; in the experiment with NCI-H460 lung, 6.73 µM; in the experiment on OVCAR-8 ovarian, 14.7 µM; with SNB-75 CNS it was 11.7 µM; with SR leukemia, greater than 100 µM; in the experiment on UACC-257 melanoma it was 7.55 µM.
`CC(=O)OC12c3ccccc3C(c3ccccc31)C1C(=O)N(Nc3ccccc3)C(=O)C12` (stereo not drawn): the TGI with M14 melanoma, in the experiment with NCI-H460 lung, in the experiment with OVCAR-8 ovarian, with SNB-75 CNS, in the experiment with SR leukemia and with UACC-257 melanoma was greater than 100 µM throughout.
Regarding `COc1ccc2cc(NC(=O)Nn3cnnc3)ccc2c1`, the TGI in the experiment with M14 melanoma, in the experiment on NCI-H460 lung, in the experiment on OVCAR-8 ovarian, with SNB-75 CNS, in the experiment on SR leukemia and in the experiment on UACC-257 melanoma was greater than 100 µM in each case.
With `O=C(c1ccccc1)c1ccc(N2C(=O)/C(=C/c3cccc([N+](=O)[O-])c3)N=C2c2ccccc2)c(N2C(=O)/C(=C/c3cccc([N+](=O)[O-])c3)N=C2c2ccccc2)c1`, the TGI with M14 melanoma is greater than 100 µM; in the experiment on NCI-H460 lung it was greater than 100 µM; with OVCAR-8 ovarian, greater than 100 µM; in the experiment with SNB-75 CNS, 81.6 µM; in the experiment with SR leukemia, greater than 100 µM; in the experiment with UACC-257 melanoma, greater than 100 µM.
With `CNC(=S)N/N=C(\C)c1cc(OC)c(OC)cc1O`, the TGI with M14 melanoma, in the experiment with NCI-H460 lung, with OVCAR-8 ovarian, in the experiment with SNB-75 CNS, in the experiment on SR leukemia and in the experiment on UACC-257 melanoma was greater than 100 µM each time.
For `CC(=O)OCc1cc(OC(C)=O)c2cc3c(OC(C)=O)cccc3c(OC(C)=O)c2c1`, the TGI was 55.7 µM in the experiment with M14 melanoma; 23.8 µM with NCI-H460 lung; 35.4 µM in the experiment on OVCAR-8 ovarian; 45.2 µM in the experiment on SNB-75 CNS; greater than 100 µM with SR leukemia; 49.1 µM in the experiment on UACC-257 melanoma.
Regarding `CNC(=O)CNC(=O)C(NC(=O)CNC(=O)C1CCCN1C(=O)C(C)NC(=O)C(NC(=O)OC(C)(C)C)C(C)C)C(C)C` (stereo not drawn) (Boc-VAPGVG-NHMe; configuration not given here), the TGI with M14 melanoma, in the experiment on NCI-H460 lung, with OVCAR-8 ovarian, in the experiment with SNB-75 CNS, in the experiment with SR leukemia and with UACC-257 melanoma was greater than 100 µM each time.
In the case of `Cc1nn(C(=O)c2ccc(Cl)cc2)c2c1C(c1ccccc1)SC(N)=N2` (stereo not drawn), the TGI with M14 melanoma, with NCI-H460 lung, with OVCAR-8 ovarian, in the experiment on SNB-75 CNS, in the experiment with SR leukemia and with UACC-257 melanoma was greater than 10 µM each time.
With `COc1ccc(/C=C2\C(=O)Nc3ccccc32)cc1OC`, the TGI in the experiment with DMS 273 small cell lung, with HOP-18 NSCLC, with KM20L2 colon, in the experiment with LXFL 529 NSCLC, in the experiment with M14 melanoma and with NCI-H460 lung was greater than 100 µM in each case. For the same molecule, the TGI is greater than 100 µM in the experiment with OVCAR-8 ovarian; 81.3 µM in the experiment with SNB-75 CNS; greater than 100 µM in the experiment with SNB-78 CNS; greater than 100 µM in the experiment on UACC-257 melanoma; greater than 100 µM in the experiment with XF 498 CNS.
As for `O=c1[nH]ncc2[nH]c(-c3ccccc3)cc12`, the TGI is greater than 100 µM in the experiment on M14 melanoma; greater than 100 µM with NCI-H460 lung; greater than 100 µM in the experiment on OVCAR-8 ovarian; 77 µM with SNB-75 CNS; greater than 100 µM with SR leukemia; greater than 100 µM in the experiment with UACC-257 melanoma.
`CO[C@@H]1C[C@H]2[C@@H]3CC[C@H]([C@@H](C)COC(C)=O)[C@@]3(C)CC[C@@H]2[C@@]2(C)CC[C@H]3C[C@]312`: the TGI in the experiment on M14 melanoma was 38 µM; with NCI-H460 lung, 23.4 µM; in the experiment with OVCAR-8 ovarian it was 24.7 µM; in the experiment on SNB-75 CNS it was 33.5 µM; in the experiment on SR leukemia it was 26.5 µM; in the experiment on UACC-257 melanoma, 24.4 µM.
For `Brc1ccc2[nH]cc([C@@H]3CN[C@@H](c4c[nH]c5ccc(Br)cc45)CN3)c2c1`, the TGI with M14 melanoma came out at 15 µM; with NCI-H460 lung, 24.4 µM; with OVCAR-8 ovarian it was 13.8 µM; in the experiment on SNB-75 CNS, 12.5 µM; in the experiment on SR leukemia, 4.17 µM; in the experiment on UACC-257 melanoma, 23.7 µM.
